Experimental data as given in patent publication US20240327380A1, “BTK INHIBITORS” (BIOGEN MA INC., priority 2020, published 2024).
pIC50: −log10 of the molar value.

Target: T1, active BTK enzyme (Upstate 14-552) (Homo sapiens, UniProt Q06187)
T1 construct: purchased Upstate 14-552
Assay: In Vitro BTK Kinase Assay: Btk-PolyGAT-LS Assay
Type: biochemical
Settings: ATP 10 μM, polyGAT 100 nM, BTK 0.25 nM, 30 minutes, TRF readout
Protocol: In Vitro BTK Kinase Assay: Btk-PolyGAT-LS Assay The purpose of the BTK in vitro assay is to determine compound potency against BTK through the measurement of IC50. Compound inhibition is measured after monitoring the amount of phosphorylation of a fluorescein-labeled polyGAT peptide (Invitrogen PV3611) in the presence of active BTK enzyme (Upstate 14-552), ATP, and inhibitor. The BTK kinase reaction was done in a black 96 well plate (costar 3694). For a typical assay, a 24 μL aliquot of a ATP/peptide master mix (final concentration; ATP 10 μM, polyGAT 100 nM) in kinase buffer (10 mM Tris-HCl pH 7.5, 10 mM MgCl2, 200 μM […], 5 mM DTT, 0.01% Triton X-100, and 0.2 mg/ml casein) is added to each well. Next, […] of a 4-fold, 40× compound titration in 100% DMSO solvent is added, followed by adding 15 μL of BTK enzyme mix in 1× kinase buffer (with a final concentration of 0.25 nM). The assay is incubated for 30 minutes before being stopped with 28 μL of a 50 mM EDTA solution. Aliquots (5 μL) of the kinase reaction are transferred to a low volume white 384 well plate (Coming 3674), and 5 μL of a 2× detection buffer (Invitrogen PV3574, with 4 nM Tb-PY20 antibody, Invitrogen PV3552) is added. The plate is covered and incubated for 45 minutes at room temperature. Time resolved fluorescence (TRF) on Molecular Devices M5 (332 nm excitation; 488 nm emission; 518 nm fluorescein emission) is measured. IC50 values are calculated using a four parameter fit with 100% enzyme activity determined from the DMSO control and 0% activity from the EDTA control.

T1 sequence (Q06187 whole entry): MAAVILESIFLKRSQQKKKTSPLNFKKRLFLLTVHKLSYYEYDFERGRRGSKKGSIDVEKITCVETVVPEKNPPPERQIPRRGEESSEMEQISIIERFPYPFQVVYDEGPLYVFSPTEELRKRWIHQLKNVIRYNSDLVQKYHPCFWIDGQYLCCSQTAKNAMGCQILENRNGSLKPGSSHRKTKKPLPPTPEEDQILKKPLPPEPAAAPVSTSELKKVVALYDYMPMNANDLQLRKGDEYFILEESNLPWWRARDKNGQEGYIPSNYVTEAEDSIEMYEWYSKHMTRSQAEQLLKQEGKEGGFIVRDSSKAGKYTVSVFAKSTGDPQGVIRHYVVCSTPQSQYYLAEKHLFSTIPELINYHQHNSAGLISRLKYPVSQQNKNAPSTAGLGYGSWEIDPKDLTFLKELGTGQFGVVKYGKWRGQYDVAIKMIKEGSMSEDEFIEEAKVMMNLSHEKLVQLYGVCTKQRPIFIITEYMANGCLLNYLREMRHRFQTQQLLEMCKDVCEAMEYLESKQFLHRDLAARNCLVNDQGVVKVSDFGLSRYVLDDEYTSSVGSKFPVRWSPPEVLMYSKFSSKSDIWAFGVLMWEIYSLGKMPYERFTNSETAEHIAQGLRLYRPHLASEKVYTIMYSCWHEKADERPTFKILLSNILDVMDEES

Structure (SMILES) | pIC50
C=CC(=O)N1CCC[C@@H](c2cnccc2-c2ccc(CNC(=O)c3cn(C(C)(C)C)nn3)c(C)c2)C1 (single isomer, unassigned) [Example 25] | < 8.00
C=CC(=O)N1CCC[C@H](c2cnccc2-c2ccc(CNC(=O)c3noc(C4(C)CC4)n3)c(C)c2)C1 (single isomer, unassigned) [Example 27] | < 8.00
C=CC(=O)N1CCC[C@@H](c2cnccc2-c2ccc(CNC(=O)c3nc(C4(C)CC4)no3)c(C)c2)C1 (single isomer, unassigned) [Example 31] | < 8.00
C=CC(=O)N1CCC[C@@H](c2cnccc2-c2ccc(CNC(=O)c3cc(C(C)(C)C)on3)c(C)c2)C1 (single isomer, unassigned) [Example 34] | < 8.00
C=CC(=O)N(C)[C@@H]1CCC(=O)N(c2cnccc2-c2ccc(CNC(=O)c3nnn(C(C)(C)C)n3)c(C)c2)C1 (single isomer, unassigned) [Example 53 Peak 2] | < 8.00
C=CC(=O)N1CCC2(CCN(c3cnccc3-c3ccc(CNC(=O)c4cn(C(C)(C)C)nn4)c(C)c3)C2)C1 (stereo not shown) [Example 4, N-(4-(3-(7-acryloyl-2,7-diazaspiro[4.4]nonan-2-yl)pyridin-4-yl)-2-methylbenzyl)-1-(tert-butyl)-1H-1,2,3-triazole-4-carboxamide] | < 8.00
C=CC(=O)N1CCC2(CCN(c3cnccc3-c3ccc(CNC(=O)c4cn(C)nc4C(F)F)c(C)c3)C2)C1 (stereo not shown) [Example 5, N-(4-(3-(7-acryloyl-2,7-diazaspiro[4.4]nonan-2-yl)pyridin-4-yl)-2-methylbenzyl)-3-(difluoromethyl)-1-methyl-1H-pyrazole-4-carboxamide] | < 8.00
C=CC(=O)N1CC2(C1)CN(c1cnccc1-c1ccc(CNC(=O)c3noc(C(C)(C)C)n3)c(C)c1)C2 [Example 6, N-(4-(3-(6-acryloyl-2,6-diazaspiro[3.3]heptan-2-yl)pyridin-4-yl)-2-methylbenzyl)-5-(tert-butyl)-1,2,4-oxadiazole-3-carboxamide] | < 8.00
C=CC(=O)N1CC2(CCN(c3cnccc3-c3ccc(CNC(=O)c4noc(C(C)(C)C)n4)c(C)c3)C2)C1 [Example 7, N-(4-(3-(2-acryloyl-2,6-diazaspiro[3.4]octan-6-yl)pyridin-4-yl)-2-methylbenzyl)-5-(tert-butyl)-1,2,4-oxadiazole-3-carboxamide] | < 8.00
C=CC(=O)N(C)C1CCN(c2cncnc2-c2ccc(CNC(=O)c3cn(C(C)(C)C)nn3)c(C)c2)C1 (stereo not shown) [Example 9, 1-(tert-butyl)-N-(2-methyl-4-(5-(3-(N-methylacrylamido)pyrrolidin-1-yl)pyrimidin-4-yl)benzyl)-1H-1,2,3-triazole-4-carboxamide] | ≥ 9.00
C=CC(=O)N(C)C1CCCN(c2cnccc2-c2ccc(CNC(=O)c3cn(C(C)(C)C)nn3)c(C)c2)C1=O (stereo not shown) [Example 10, 1-(tert-butyl)-N-(2-methyl-4-(3-(3-(N-methylacrylamido)-2-oxopiperidin-1-yl)pyridin-4-yl)benzyl)-1H-1,2,3-triazole-4-carboxamide] | < 8.00
C=CC(=O)N(C)C1CCN(c2cnccc2-c2ccc(CNC(=O)c3cn(C(C)(C)C)nn3)c(C)c2)C1=O (stereo not shown) [Example 11, 1-(tert-butyl)-N-(2-methyl-4-(3-(3-(N-methylacrylamido)-2-oxopyrrolidin-1-yl)pyridin-4-yl)benzyl)-1H-1,2,3-triazole-4-carboxamide] | < 8.00
C=CC(=O)N(C)CC1CCN(c2cnccc2-c2ccc(CNC(=O)c3noc(C(C)(C)C)n3)c(C)c2)C1 (stereo not shown) [Example 20, 5-(tert-butyl)-N-(2-methyl-4-(3-(3-((N-methylacrylamido)methyl)pyrrolidin-1-yl)pyridin-4-yl)benzyl)-1,2,4-oxadiazole-3-carboxamide] | ≥ 9.00
C=CC(=O)N(C)CC1CCCN(c2cnccc2-c2ccc(CNC(=O)c3noc(C(C)(C)C)n3)c(C)c2)C1 (stereo not shown) [Example 21, 5-(tert-butyl)-N-(2-methyl-4-(3-(3-((N-methylacrylamido)methyl)piperidin-1-yl)pyridin-4-yl)benzyl)-1,2,4-oxadiazole-3-carboxamide] | 8.00 to 9.00
C=CC(=O)N(C)C1CCCN(c2cnccc2-c2ccc(CNC(=O)c3cnc(C(C)(C)C)o3)c(C)c2)C1 (stereo not shown) [Example 38, 2-(tert-butyl)-N-(2-methyl-4-(3-(3-(N-methylacrylamido)piperidin-1-yl)pyridin-4-yl)benzyl)oxazole-5-carboxamide] | ≥ 9.00
C=CC(=O)N(C)C1CCCN(c2cnccc2-c2ccc(CNC(=O)c3ncc(C(C)(C)C)o3)c(C)c2)C1 (stereo not shown) [Example 45, 5-(tert-butyl)-N-(2-methyl-4-(3-(3-(N-methylacrylamido)piperidin-1-yl)pyridin-4-yl)benzyl)oxazole-2-carboxamide] | ≥ 9.00
C=CC(=O)N(C)[C@@H]1CCCN(c2cncc(C#N)c2-c2ccc(CNC(=O)c3cn(C(C)(C)C)nn3)c(C)c2F)C1 [Example 47, 1-(tert-butyl)-N-(4-(3-cyano-5-((R)-3-(N-methylacrylamido)piperidin-1-yl)pyridin-4-yl)-3-fluoro-2-methylbenzyl)-1H-1,2,3-triazole-4-carboxamide] | ≥ 9.00
C=CC(=O)N(C)[C@@H]1CCCN(c2cncc(C#N)c2-c2ccc(CNC(=O)c3cn(C(C)(C)C)nn3)c(C)c2)C1 [Example 48, (R)-1-(tert-butyl)-N-(4-(3-cyano-5-(3-(N-methylacrylamido)piperidin-1-yl)pyridin-4-yl)-2-methylbenzyl)-1H-1,2,3-triazole-4-carboxamide] | ≥ 9.00
C=CC(=O)N1CCN(c2cncnc2-c2ccc(CNC(=O)c3cn(C(C)(C)C)nn3)c(C)c2)CC1 [Example 50, N-(4-(5-(4-acryloylpiperazin-1-yl)pyrimidin-4-yl)-2-methylbenzyl)-1-(tert-butyl)-1H-1,2,3-triazole-4-carboxamide] | ≥ 9.00
C=CC(=O)N1CC2CC1CN(c1cnccc1-c1ccc(CNC(=O)c3cn(C(C)(C)C)nn3)c(C)c1)C2 (stereo not shown) [Example 54, 1-tert-butyl-N-[[2-methyl-4-[3-(6-prop-2-enoyl-3,6-diazabicyclo[3.2.1]octan-3-yl)-4-pyridyl]phenyl]methyl]triazole-4-carboxamide] | < 8.00
C=CC(=O)N1CC2CC1CN(c1cnccc1-c1ccc(CNC(=O)c3cc(C(C)(C)C)on3)c(C)c1)C2 (stereo not shown) [Example 55, 5-tert-butyl-N-[[2-methyl-4-[3-(6-prop-2-enoyl-3,6-diazabicyclo[3.2.1]octan-3-yl)-4-pyridyl]phenyl]methyl]isoxazole-3-carboxamide] | < 8.00
Cc1cc(-c2ccncc2N2CCN(C(=O)C3=CCC3)CC2)ccc1CNC(=O)c1noc(C(C)(C)C)n1 [Example 57, 5-(tert-butyl)-N-(4-(3-(4-(cyclobut-1-ene-1-carbonyl)piperazin-1-yl)pyridin-4-yl)-2-methylbenzyl)-1,2,4-oxadiazole-3-carboxamide] | ≥ 9.00
Cc1cc(-c2ccncc2N2CCN(C(=O)/C=C/C(F)(F)F)CC2)ccc1CNC(=O)c1noc(C(C)(C)C)n1 [Example 58, (E)-5-(tert-butyl)-N-(2-methyl-4-(3-(4-(4,4,4-trifluorobut-2-enoyl)piperazin-1-yl)pyridin-4-yl)benzyl)-1,2,4-oxadiazole-3-carboxamide] | ≥ 9.00
Cc1cc(-c2ccncc2N2CCN(C(=O)C3CO3)CC2)ccc1CNC(=O)c1noc(C(C)(C)C)n1 (stereo not shown) [Example 59, 5-(tert-butyl)-N-(2-methyl-4-(3-(4-(oxirane-2-carbonyl)piperazin-1-yl)pyridin-4-yl)benzyl)-1,2,4-oxadiazole-3-carboxamide] | 8.00 to 9.00
C#CC(=O)N1CCN(c2cnccc2-c2ccc(CNC(=O)c3noc(C(C)(C)C)n3)c(C)c2)CC1 [Example 60, 5-(tert-butyl)-N-(2-methyl-4-(3-(4-propioloylpiperazin-1-yl)pyridin-4-yl)benzyl)-1,2,4-oxadiazole-3-carboxamide] | ≥ 9.00
CC#CC(=O)N1CCN(c2cnccc2-c2ccc(CNC(=O)c3noc(C(C)(C)C)n3)c(C)c2)CC1 [Example 62, N-(4-(3-(4-(but-2-ynoyl)piperazin-1-yl)pyridin-4-yl)-2-methylbenzyl)-5-(tert-butyl)-1,2,4-oxadiazole-3-carboxamide] | ≥ 9.00
Cc1cc(-c2ccncc2N2CCN(C(=O)/C=C/CN3CC(F)C3)CC2)ccc1CNC(=O)c1noc(C(C)(C)C)n1 [Example 64, (E)-5-(tert-butyl)-N-(4-(3-(4-(4-(3-fluoroazetidin-1-yl)but-2-enoyl)piperazin-1-yl)pyridin-4-yl)-2-methylbenzyl)-1,2,4-oxadiazole-3-carboxamide] | 8.00 to 9.00
Cc1cc(-c2ccncc2N2CCN(C(=O)/C=C/CN3CCN(C)CC3)CC2)ccc1CNC(=O)c1noc(C(C)(C)C)n1 [Example 65, (E)-5-(tert-butyl)-N-(2-methyl-4-(3-(4-(4-(4-methylpiperazin-1-yl)but-2-enoyl)piperazin-1-yl)pyridin-4-yl)benzyl)-1,2,4-oxadiazole-3-carboxamide] | 8.00 to 9.00
